Here are results for 11 compounds from patent US6211214A, “Biphenyl ether oxazolines and their use as pest-control agents” (Bayer Aktiengesellschaft, priority 1995, dated 2001).

Series [1] relates to mustard beetle larvae (Phaedon cochleariae). The series is described as follows: Phaedon larvae test (cabbage leaves dipped). Type of series: in vivo. The following applies: after 7 days, 0.01% active compound; for mortality at 0.01 % strength: Phaedon cochleariae, 168 h, read-out: destruction. As to the method:
(§1) Phaedon Larvae Test Solvent: 7 parts by weight of dimethylformamide Emulsifier: 1 part by weight of alkylaryl polyglycol ether To produce a suitable preparation of active compound, 1 part by weight of active compound is mixed with the stated amount of solvent and the stated amount of emulsifier, and the concentrate is diluted with water to the desired concentration. Cabbage leaves (Brassica oleracea) are treated by being dipped into the preparation of the active compound of the desired concentration and are infested with mustard beetle larvae (Phaedon cochleariae), as long as the leaves are still moist.

Series [2] concerns caterpillars of the owlet moth (Spodoptera frugiperda). The series is described as follows: Spodoptera frugiperda test (cabbage leaves dipped). It counts as in vivo. The following applies: after 7 days, 0.1% active compound; for mortality at 0.1 % strength: Spodoptera frugiperda, 168 h, read-out: destruction. Here is the method: as §1, with “Spodoptera Frugiperda-Test Solvent: 7” for “Phaedon Larvae Test Solvent: 7”, “preparation of active compound” for “preparation of the active compound”, “infested with caterpillars of the owlet moth (Spodoptera frugiperda), as long” for “infested with mustard beetle larvae (Phaedon cochleariae), as long”

The test system of series [3] is caterpillars of the diamond-back moth (Plutella maculipennis). Description: Plutella test (cabbage leaves dipped). The following applies: 168 h, after 7 days, 0.0001% active compound, read-out: destruction. Type of series: in vivo. Here is the method:
(§2) Solvent: 7 parts by weight of dimethylformamide
(§3) Emulsifier: 1 part by weight of alkylaryl polyglycol ether
To produce a suitable preparation of active compound, 1 part by weight of active compound is mixed with the stated amount of solvent and the stated amount of emulsifier, and the concentrate is diluted with water to the desired concentration.
Cabbage leaves (Brassica oleracea) are treated by being dipped into the preparation of active compound of the desired concentration and are infested with caterpillars of the diamond-back moth (Plutella maculipennis) while the leaves are still moist.
After the desired time, the destruction in % is determined. 100% means that all the caterpillars have been killed; 0% means that none of the caterpillars have been killed.

Series [4] deals with two-spotted spider mite (Tetranychus urticae). The series is described as follows: Tetranychus test (OP-resistant/dipping treatment). Type of series: in vivo. The conditions noted are these: 312 h, read-out: destruction. As to the method:
Tetranychus Test (OP-resistant/dipping treatment)
as §2, §3
To produce a suitable preparation of active compound, 1 part by weight of active compound is mixed with the stated amount of solvent and the stated amount of emulsifier, and the concentrate is diluted with emulsifier-containing water to the desired concentrations.
Bean plants (Phaseolus vulgaris) which are heavily infested with all stages of the two-spotted spider mite (Tetranychus urticae) are treated by being dipped into a preparation of the active compound of the desired concentration.
After the desired time, the effect in % is determined. 100% means that all the spider mites have been killed; 0% means that none of the spider mites have been killed.

Series [5] is described as follows: log p (partition coefficient octanol/water, determined experimentally from reversed phase HPLC). It counts as physicochemical. The conditions noted are these: reversed phase hplc. The source says: [log p=logarithm of the partition coefficient p of the substance between the solvents octanol and water, determined experimentally from reversed phase HPLC]
The subject of series [6] is green peach aphid (Myzus persicae). Description: Myzus test (infested broad bean seedlings dipped). Type of series: in vivo. The conditions noted are these: 144 h, after 6 days, 0.01% active compound, read-out: destruction. As to the method:
as §2, §3
To produce a suitable preparation of active compound, 1 part by weight of active compound is mixed with the stated amount of solvent and the stated amount of emulsifier and the concentrate is diluted with water to the desired concentration.
Seedlings of broad beans (Vicia faba) infested by the green peach aphid (Myzus persicae) are dipped into the preparation of active compound of the desired concentration and placed in a plastic container.
After the desired time, the destruction in % is determined. 100% means that all the aphids have been killed; 0% means that none of the aphids has been killed.

Read-outs that look alike come from different tables or passages of the source.

With `CON=C(C)COc1ccc(-c2ccc(C3COC(c4c(F)cccc4F)=N3)cc2)cc1` (stereo not drawn) [Example 13], the mortality at 0.01 % strength in series [1] came to 100%.

Turning to `N#CCCCOc1ccc(-c2ccc(C3COC(c4c(F)cccc4F)=N3)cc2)cc1` (stereo not drawn) [Example 14], the mortality at 0.01 % strength in series [1] stood at 100%. For the same compound, the mortality at 0.1 % strength in series [2] was 100%.

Consider `CC(C#N)Oc1ccc(-c2ccc(C3COC(c4c(F)cccc4F)=N3)cc2)cc1` (stereo not drawn) [Example 4, 2-(2,6-difluorophenyl)-4-[4'-(2-propionitriloxy)-biphenyl-4-yl]-1,3-oxazoline], for which the mortality at 0.01 % strength in series [1] worked out at 100%. Besides, the mortality at 0.1 % strength in series [2] was 100%. In addition, the mortality at 0.0001 % strength in series [3] is 100%.

On to `O=C(COc1ccc(-c2ccc(C3COC(c4c(F)cccc4F)=N3)cc2)cc1)c1ccccc1` (stereo not drawn) [Example 1, 2-(2,6-difluorophenyl)-4-(4'-benzoylmethoxy-biphenyl-4-yl)-1,3-oxazoline], for which, in series [1], the mortality at 0.01 % strength turned out to be 100%. Also, the mortality at 0.001 % strength in series [4] came out at 98%. The mortality at 0.1 % strength in series [2] was found to be 100%.

`COC(=O)C(Oc1ccc(-c2ccc(C3COC(c4c(F)cccc4F)=N3)cc2)cc1)C(C)C` (stereo not drawn) [Example 18]: the mortality at 0.1 % strength in series [2] amounted to 100%. In addition, the chromatographic logP (commonly lipophilicity estimated from chromatographic retention) in series [5] came to 4.56.

For the compound `CC(Oc1ccc(-c2ccc(C3COC(c4c(F)cccc4F)=N3)cc2)cc1)C1=NOCCO1` (stereo not drawn) [Example 20], the mortality at 0.01 % strength in series [1] was 100%. In series [2], the mortality at 0.1 % strength amounted to 100%.

As for `COc1ccc(-c2ccc(C3COC(c4c(F)cccc4F)=N3)cc2)cc1` (stereo not drawn) [(A), reference compound], the destruction result in series [1] and in series [2] was “no destruction” each time. Besides, the mortality at 0.001 % strength in series [4] (after 13 days, 0.001% active compound) was found to be 45%. In addition, the mortality at 0.01 % strength in series [6] was found to be 5%. The mortality at 0.0001 % strength in series [3] amounted to 5%.

With `CCOC(CCOc1ccc(-c2ccc(C3COC(c4c(F)cccc4F)=N3)cc2)cc1)OCC` (stereo not drawn) [Example 16], in series [1], the mortality at 0.01 % strength is 100%. Besides, the mortality at 0.1 % strength in series [2] was 100%. Further, the chromatographic logP in series [5] turned out to be 4.74.

Regarding `CCCC(C#N)Oc1ccc(-c2ccc(C3COC(c4c(F)cccc4F)=N3)cc2)cc1` (stereo not drawn) [Example 21], the mortality at 0.01 % strength in series [1] stood at 100%. Further, the mortality at 0.1 % strength in series [2] is 100%.

As to `CC(C)(C)OC(=O)COc1ccc(-c2ccc(C3COC(c4c(F)cccc4F)=N3)cc2)cc1` (stereo not drawn) [Example 10], in series [2], the mortality at 0.1 % strength was found to be 100%. In series [5], this compound showed a chromatographic logP of 4.43.

As for `CON=C(COc1ccc(-c2ccc(C3COC(c4c(F)cccc4F)=N3)cc2)cc1)c1ccccc1` (stereo not drawn) [Example 2], the mortality at 0.01 % strength in series [1] worked out at 100%. Besides, in series [4], the mortality at 0.001 % strength was determined as 98%. Also, the mortality at 0.1 % strength in series [2] was 100%. In addition, the mortality at 0.0001 % strength in series [3] is 100%. This compound also showed a chromatographic logP in series [5] of 5.01.
